Experimental findings from patent US10711004B2 (Genentech, Inc., priority 2018, dated 2020) are described below.

SMILES strings stand for the structures.

Sequence of human TRPA1 channel (O75762 whole entry): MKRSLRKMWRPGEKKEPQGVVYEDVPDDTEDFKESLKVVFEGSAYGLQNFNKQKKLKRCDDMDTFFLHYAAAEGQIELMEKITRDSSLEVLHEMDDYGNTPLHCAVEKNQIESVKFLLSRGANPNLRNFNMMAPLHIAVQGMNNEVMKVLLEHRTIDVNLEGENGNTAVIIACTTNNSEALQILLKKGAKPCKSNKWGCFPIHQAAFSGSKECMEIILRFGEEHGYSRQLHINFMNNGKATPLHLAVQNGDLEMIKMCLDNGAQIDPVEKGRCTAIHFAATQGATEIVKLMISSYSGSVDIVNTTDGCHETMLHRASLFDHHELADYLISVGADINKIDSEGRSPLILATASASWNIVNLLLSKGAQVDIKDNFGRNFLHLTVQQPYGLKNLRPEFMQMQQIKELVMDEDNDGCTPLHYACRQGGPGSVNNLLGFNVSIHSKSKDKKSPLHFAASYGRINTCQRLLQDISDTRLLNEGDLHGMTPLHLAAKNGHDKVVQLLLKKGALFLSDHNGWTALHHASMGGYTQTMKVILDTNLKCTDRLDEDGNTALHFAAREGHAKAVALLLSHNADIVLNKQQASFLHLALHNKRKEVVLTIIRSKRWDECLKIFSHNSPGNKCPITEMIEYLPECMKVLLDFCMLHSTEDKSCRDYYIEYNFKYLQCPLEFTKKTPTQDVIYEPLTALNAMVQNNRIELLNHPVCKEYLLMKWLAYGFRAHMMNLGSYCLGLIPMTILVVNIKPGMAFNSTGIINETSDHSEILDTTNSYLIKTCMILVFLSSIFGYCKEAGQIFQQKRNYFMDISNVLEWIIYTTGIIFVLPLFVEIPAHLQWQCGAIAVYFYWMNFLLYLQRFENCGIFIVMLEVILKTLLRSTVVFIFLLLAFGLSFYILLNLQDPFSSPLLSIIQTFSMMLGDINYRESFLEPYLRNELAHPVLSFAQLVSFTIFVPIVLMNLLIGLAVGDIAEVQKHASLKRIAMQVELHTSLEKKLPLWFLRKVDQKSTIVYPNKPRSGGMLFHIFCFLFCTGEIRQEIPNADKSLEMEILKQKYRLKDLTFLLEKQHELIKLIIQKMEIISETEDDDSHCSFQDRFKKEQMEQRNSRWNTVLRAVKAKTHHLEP

This assay has as its target human TRPA1 channel (Homo sapiens (Human), UniProt O75762). Description: hTRPA1 CHO Ca2+ FLIPR Tetra assay, block of cinnamaldehyde induced calcium influx. It is filed as cell-based. To be noted: read-out: hTRPA1 IC50 (10 min); CHO cells expressing TRPA1; compounds incubated 10 minutes at room temperature before cinnamaldehyde agonist; Hill coefficient fixed to 1.5. The procedure: CHO cells expressing TRPA1 were plated into 384-well plates, incubated overnight at 37° C., and loaded with BD calcium indicator dye for 1 hr at 37° C. followed by 15 minutes at room temperature. The assay buffer was Hank's Balanced Salt Solution (HBSS) containing 20 mM HEPES (pH readjusted to 7.4) along with 0.02% BSA.
Following dye load and plate cool down, compounds were added to the cells using FLIPR Tetra. Plates were then incubated with compounds for 10 minutes or 90 minutes at room temperature prior to adding agonist. Following this incubation, about an EC50 concentration of cinnamaldehyde (75) was added to active the channels and block of cinnamaldehyde induced calcium influx was measured.
Fixing the Hill coefficient will generally reduce variability of the IC50 determination. The IC50 results were individually examined to make sure the MIN and MAX points were set correctly prior to validation of the results.
As for `Cn1cnc2ncn(Cc3nc([C@H]4[C@@H]5CN(c6ccccc6Cl)C[C@@H]54)no3)c(=O)c21`, the half-maximal inhibitory concentration (IC50) was determined as 0.0773 µM.

For the compound `Cn1cnc2ncn(Cc3nc([C@H]4[C@@H]5CN(c6ccc(Cl)c(Cl)c6)C[C@@H]54)no3)c(=O)c21`, the IC50 was 0.0643 µM.

As for `Cn1cnc2ncn(Cc3nc([C@H]4[C@@H]5CN(c6cc(Cl)ccc6F)C[C@@H]54)no3)c(=O)c21`, the concentration for half-maximal inhibition (IC50) is 0.0125 µM.

For `Cn1cnc2ncn(Cc3nc([C@H]4[C@@H]5CN(c6cc(F)cc(Cl)c6)C[C@@H]54)no3)c(=O)c21`, the IC50 stood at 0.0205 µM.

`Cn1cnc2ncn(Cc3nc([C@H]4[C@@H]5CN(c6ccc(F)c(Cl)c6)C[C@@H]54)no3)c(=O)c21`: the IC50 turned out to be 0.00978 µM.

Take `Cn1cnc2ncn(Cc3nc([C@H]4[C@@H]5CN(c6cccc(C(F)F)c6)C[C@@H]54)no3)c(=O)c21`: the IC50 turned out to be 0.0644 µM.

On to `Cn1cnc2ncn(Cc3nc([C@H]4[C@@H]5CN(c6cccc(SC(F)(F)F)c6)C[C@@H]54)no3)c(=O)c21`, for which the half-inhibitory concentration (IC50) turned out to be 0.3 µM.

Consider `CC(=O)c1cccc(N2C[C@@H]3[C@H](C2)[C@H]3c2noc(Cn3cnc4ncn(C)c4c3=O)n2)c1`, for which the 50% inhibitory concentration (IC50) is 0.295 µM.

`Cn1cnc2ncn(Cc3nc([C@H]4[C@@H]5CN(c6ccc7c(c6)CCC7)C[C@@H]54)no3)c(=O)c21`: the 50% inhibitory concentration (IC50) is 0.111 µM.

Consider `Cn1cnc2ncn(Cc3nc([C@H]4[C@@H]5CN(c6cccc(C7CC7)c6)C[C@@H]54)no3)c(=O)c21`, for which the IC50 amounted to 0.112 µM.

Turning to `O=c1c2ccncc2ncn1Cc1nc([C@H]2C[C@](F)(c3ccc(Cl)cc3)C2)no1`, the IC50 came to 0.19 µM.

Regarding `O=c1c2cccnc2ncn1Cc1nc([C@H]2C[C@H](c3cccc(Cl)c3)C2)no1`, the half-maximal inhibitory concentration (IC50) is 0.049 µM.

On to `O=c1c2cccnc2ncn1Cc1nc([C@H]2C[C@](F)(c3ccc(Cl)cc3)C2)no1`, for which the IC50 stood at 0.0202 µM.

On to `O=c1c2cccnc2ncn1Cc1nc([C@H]2C[C@](O)(c3cccc(Cl)c3)C2)no1`, for which the IC50 came to 0.281 µM.

On to `Cc1ccnc2ncn(Cc3nc([C@H]4C[C@H](c5cccc(Cl)c5)C4)no3)c(=O)c12`, for which the IC50 came to 0.0122 µM.

Consider `Cc1ccnc2ncn(Cc3nc([C@H]4C[C@](O)(c5cccc(Cl)c5)C4)no3)c(=O)c12`, for which the half-inhibitory concentration (IC50) was 0.0578 µM.

With `COc1ccc([C@H]2C[C@H](c3noc(Cn4cnc5nccc(C)c5c4=O)n3)C2)cc1`, the IC50 is 0.0387 µM.

On to `Cc1ccnc2ncn(Cc3nc([C@H]4C[C@H](c5ccc(OC(F)F)cc5)C4)no3)c(=O)c12`, for which the half-maximal inhibitory concentration (IC50) is 0.0513 µM.

On to `Cc1ccnc2ncn(Cc3nc([C@H]4C[C@H](c5ccc(OC(F)(F)F)cc5)C4)no3)c(=O)c12`, for which the IC50 was determined as 0.0638 µM.

As to `Cc1ccnc2ncn(Cc3nc([C@H]4[C@@H]5CN(c6ccccc6)C[C@@H]54)no3)c(=O)c12`, the half-maximal inhibitory concentration (IC50) is 0.039 µM.

For the compound `Cc1cncc2ncn(Cc3nc([C@H]4[C@@H]5CN(c6ccccc6)C[C@@H]54)no3)c(=O)c12`, the half-inhibitory concentration (IC50) was determined as 0.0146 µM.

Regarding `Cc1cncc2ncn(Cc3nc([C@H]4[C@@H]5CN(c6cccc(Cl)c6)C[C@@H]54)no3)c(=O)c12`, the IC50 was determined as 0.0815 µM.

Consider `Cn1cnc2ncn(Cc3nc([C@H]4[C@@H]5CN(c6ccc7c(cnn7C)c6)C[C@@H]54)no3)c(=O)c21`, for which the concentration for half-maximal inhibition (IC50) came out at 0.141 µM.

`Cn1cnc2ncn(Cc3nc([C@H]4[C@@H]5CN(c6ccc7ccncc7c6)C[C@@H]54)no3)c(=O)c21`: the concentration for half-maximal inhibition (IC50) is 0.0692 µM.

As to `Cn1cnc2ncn(Cc3nc([C@H]4[C@@H]5CN(c6ccc7ncccc7c6)C[C@@H]54)no3)c(=O)c21`, the IC50 was 0.166 µM.

`Cn1cnc2ncn(Cc3nc([C@H]4[C@@H]5CN(c6cnc7ccccc7c6)C[C@@H]54)no3)c(=O)c21`: the IC50 was determined as 0.169 µM.

Regarding `Cn1cnc2ncn(Cc3nc([C@H]4[C@@H]5CN(c6cncc(Cl)c6)C[C@@H]54)no3)c(=O)c21`, the IC50 amounted to 0.287 µM.

Regarding `Cn1cnc2ncn(Cc3nc([C@@H]4CC[C@@H](c5ccccc5)C4)no3)c(=O)c21`, the IC50 worked out at 0.149 µM.

`Cn1cnc2ncn(Cc3nc([C@H]4C[C@H](c5ccc(OC(F)F)cc5)C4)no3)c(=O)c21`: the half-maximal inhibitory concentration (IC50) amounted to 0.142 µM.

As for `Cn1cnc2ncn(Cc3nc([C@H]4C[C@H](c5ccc(OC(F)(F)F)cc5)C4)no3)c(=O)c21`, the IC50 was 0.196 µM.

In general, IC50 refers to the point on the concentration scale where inhibition reaches its midpoint.
